Assay results taken from US6342519B2, “Oxetanone derivatives” (2 Pro Chemical, priority 1999, dated 2002).

Assays:
human lipase = target: T1, human lipase (Homo sapiens, UniProt P16233); assay: Lipase inhibition assay, Lipase #1 solution (Aldrich Lipase PS Standard); type: biochemical; settings: Lipase #1 (human lipase), 20 mL of compound stock solution in 0.2 N HCl, Sigma Lipase Substrate, pH about 8, 30 minutes, 35-37° C., titration with 0.025 N NaOH, two runs
T1 construct: purchased Aldrich Product No. 8054
T1 sequence (P16233 17-465): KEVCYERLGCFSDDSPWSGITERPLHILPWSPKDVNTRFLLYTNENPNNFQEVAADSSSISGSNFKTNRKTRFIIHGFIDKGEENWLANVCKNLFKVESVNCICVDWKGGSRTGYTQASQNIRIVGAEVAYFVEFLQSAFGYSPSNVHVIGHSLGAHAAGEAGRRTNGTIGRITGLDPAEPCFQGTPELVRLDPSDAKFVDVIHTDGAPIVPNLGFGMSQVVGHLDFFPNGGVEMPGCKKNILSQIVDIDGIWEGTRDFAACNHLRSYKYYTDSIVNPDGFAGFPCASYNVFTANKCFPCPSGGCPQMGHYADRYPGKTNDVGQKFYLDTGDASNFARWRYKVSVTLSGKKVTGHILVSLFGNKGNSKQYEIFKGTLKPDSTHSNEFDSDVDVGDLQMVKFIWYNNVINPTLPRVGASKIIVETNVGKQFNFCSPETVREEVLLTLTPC
Procedure: (§1) Lipase inhibition assays were performed essentially as follows using each of Compounds A and B.
(§2) A 1 L stock solution of 1N NaOH was made and a 500 mL stock solution of 0.025 N NaOH was made by diluting a portion of the stock 1N solution. Also a stock solution of 0.2 N HCl was made. A 100 mL TRIZMA solution (from Aldrich Lipase Assay Kit Cat. No. 800B) was diluted with 100 mL of denatured EtOH and 300 mL of water to form a 500 mL TEW solution. Compound A from Example 6 (100 mg) was added to a portion of the 0.2 N HCl stock solution and diluted to a final volume of 300 mL with the same HCl stock solution to form a compound A stock solution. […]
(§3) In a 500 mL beaker equipped with a heat source and a magnetic stirrer was added 100 mL of distilled water, 10 mL of TEW solution, 10 mL of Sigma Lipase Substrate and a 20 mL sample (sample control was 20 mL of the stock 0.2 N HCl solution, sample A was 20 mL of the compound A stock solution, and sample B was 20 mL of the compound B stock solution). The pH was adjusted to about 8 with 1N NaOH using a pH meter, whose reading was noted and recorded as a baseline reading after the pH adjustment. […] The volume of NaOH solution used to return to the baseline pH reading was noted and recorded. […]

[1] = target: T2, Pork Pancreas Lipase [EC 3.1.1.3] (Sus scrofa, UniProt P00591); assay: Lipase inhibition assay, Lipase #2 solution (Aldrich Pork Pancreas Lipase); type: biochemical; settings: Lipase #2 (pork pancreas lipase), 20 mL of compound stock solution in 0.2 N HCl, Sigma Lipase Substrate, pH about 8, 30 minutes, 35-37° C., titration with 0.025 N NaOH, two runs
T2 construct: purchased Aldrich Product No. 32313; host or cells: pork pancreas
T2 sequence (P00591 1-450): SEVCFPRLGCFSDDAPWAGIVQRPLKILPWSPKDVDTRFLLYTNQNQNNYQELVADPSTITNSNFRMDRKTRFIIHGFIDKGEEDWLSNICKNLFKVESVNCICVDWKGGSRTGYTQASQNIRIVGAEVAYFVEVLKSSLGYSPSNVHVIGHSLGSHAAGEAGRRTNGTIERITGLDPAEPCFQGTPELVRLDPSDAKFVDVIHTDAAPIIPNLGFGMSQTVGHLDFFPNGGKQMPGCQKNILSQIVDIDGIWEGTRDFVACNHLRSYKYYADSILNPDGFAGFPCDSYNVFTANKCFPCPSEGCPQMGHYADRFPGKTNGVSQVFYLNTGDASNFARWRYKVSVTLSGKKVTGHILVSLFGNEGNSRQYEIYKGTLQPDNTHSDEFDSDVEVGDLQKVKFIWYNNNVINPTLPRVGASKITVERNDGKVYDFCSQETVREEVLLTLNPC
Procedure: as §1, §2, §3

[2] = Oil binding assay with olive oil and food-coloured water; type: physicochemical; settings: for oil binding, observation: olive oil/substance 1.5/1 ratio by weight, then 4 mL of water with food coloring
Procedure: Oil binding assay were performed using each of Compounds A and B using the procedures essentially as follows.
Six controls were obtained by adding Star Brand Olive Oil (extra virgin light colored olive oil) to 4 or 7 mL sample bottles, which were photographed at a distance of 10 inches by using an IZONE POLAROID camera as follows.
For comparison with Control 4 (oil/chitosan 1.5/1 ratio) each of Compounds A and B were mixed with oil in the same ratio(oil/compound 1.5/1 ratio, green food coloring was added to the aqueous portion of the compound A sample bottle and blue food coloring was added to the aqueous portion of the compound B sample bottle).
For comparison with Control 6 (oil/chitosan 8:1 ratio and 1 mL of aqueous solution with food coloring), compound B was added to 8 times its weight of oil and stirred to a uniform consistency. The 1 mL of water was added and 5 drops of red food coloring were added.

[3] = system: absorption of dietary fat; settings: 120 mg dose taken before, or up to one hour after, a fat-containing meal; average person; cited from earlier work

Compound	percent inhibition with respect to the control (human lipase)	percent inhibition with respect to the control [1]	water absorbed after binding oil ([2]; olive oil/compound 8:1, 1 mL of water)	tightness of oil binding compared with chitosan and compound A ([2]; olive oil/substance 1.5/1 ratio)	oil binding, observation [2]	oil binding and water uptake, observation ([2]; olive oil/substance 8:1 ratio by weight, then 1 mL of water and 5 drops of red food coloring)	share of the fat eaten at a given meal that is not absorbed [3]
4-[{(hexanoic acid modified chitosan 6-hexanoyloxy}-2-hexyl-hexadecanoic 1,3-lactone [Compound B]	about 50%	about 50%	at least its weight in water	appeared to perhaps bind the oil more tightly than either chitosan or compound A	oil is bound tightly at the bottom of the bottle and there is substantially no floating oil	uniformly absorbed the 1 mL of aqueous food coloring solution to form a homogenous layer which was present even after 24 hours	
CCCCCCCCCCC[C@@H](C[C@@H]1OC(=O)[C@H]1CCCCCC)OC(=O)[C@H](CC(C)C)NC=O [Orlistat, (2S,3S,5S)-5-[(S)-2-formamido-4-methyl-valeryloxy]-2-hexyl-3-hydroxy-hexadecanoic 1,3 acid lactone]							up to one-third
2S, 3S, 4S [2-{(hexanoic acid modified chitosan 6-hexanoylamido}-4-methylvaleryloxy]-2-hexyl-hexadecanoic 1,3-lactone [Compound A]	about 50%	about 50%			oil is bound tightly at the bottom of the bottle and there is substantially no floating oil		
